# Experimental data as given in patent US11242337B2, “Compounds useful for treating gastrointestinal tract disorders” (Ardelyx, Inc., priority 2017, dated 2022).
# Legend:
# NHE3 [1] = biological target: T1, NHE3 (Homo sapiens, UniProt P48764); assay: Cell-based assay of NHE-3 activity (persistent inhibition), human; details: human Persistence, 60 min incubation then washout
# T1 construct: expressed in transfected cells
# T1 sequence (P48764 26-834): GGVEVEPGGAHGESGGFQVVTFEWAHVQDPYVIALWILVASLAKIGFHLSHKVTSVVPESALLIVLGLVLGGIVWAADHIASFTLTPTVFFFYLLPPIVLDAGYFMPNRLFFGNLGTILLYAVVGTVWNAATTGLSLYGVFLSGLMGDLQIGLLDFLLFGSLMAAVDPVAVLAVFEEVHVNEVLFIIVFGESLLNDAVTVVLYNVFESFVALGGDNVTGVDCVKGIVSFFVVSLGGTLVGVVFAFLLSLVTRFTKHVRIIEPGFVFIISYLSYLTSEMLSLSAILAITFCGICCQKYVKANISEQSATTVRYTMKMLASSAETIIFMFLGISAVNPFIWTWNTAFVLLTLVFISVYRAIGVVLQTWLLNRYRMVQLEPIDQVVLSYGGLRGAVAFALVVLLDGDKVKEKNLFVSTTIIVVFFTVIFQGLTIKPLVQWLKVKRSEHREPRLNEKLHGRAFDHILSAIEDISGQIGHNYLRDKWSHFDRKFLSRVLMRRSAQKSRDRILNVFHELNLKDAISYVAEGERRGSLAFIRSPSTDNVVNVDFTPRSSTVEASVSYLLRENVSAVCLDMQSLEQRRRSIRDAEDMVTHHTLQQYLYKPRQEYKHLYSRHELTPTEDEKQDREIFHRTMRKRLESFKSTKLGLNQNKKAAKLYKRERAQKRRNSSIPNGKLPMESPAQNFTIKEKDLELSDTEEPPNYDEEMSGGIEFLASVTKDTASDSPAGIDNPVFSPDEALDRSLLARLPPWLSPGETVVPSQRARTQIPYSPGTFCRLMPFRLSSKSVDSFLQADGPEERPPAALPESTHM
# T1 sequence (Q99653 2-195 partner limits assumed): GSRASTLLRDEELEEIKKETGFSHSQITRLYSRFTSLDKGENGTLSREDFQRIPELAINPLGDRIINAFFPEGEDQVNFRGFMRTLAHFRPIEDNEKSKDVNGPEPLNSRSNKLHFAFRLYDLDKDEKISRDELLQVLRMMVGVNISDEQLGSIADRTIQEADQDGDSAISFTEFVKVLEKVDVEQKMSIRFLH
# Procedure, shortened: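 PS120 fibroblasts expressing human NHE3 with NHERF2 exposed to 0-30 μM compound for 60 min at RT, then washed out; cells acid-loaded by NH4Cl prepulse with BCECF-AM and Na+-free buffer. Na+-driven pH recovery started 10 min post-washout; initial rate of BCECF ratio change (FLIPR) taken as activity.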
# NHE3 [2] = biological target: T1, NHE3; assay: Cell-based assay of NHE-3 activity (pre-incubation inhibition), human; details: human Preincubation; for pIC50 / IC50: 0-30 μM test compound
# Procedure, shortened: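 PS120 fibroblasts stably expressing human NHE3 and NHERF2, loaded 30 min at 37 °C with 5 μM BCECF-AM in NH4Cl buffer, then acidified 10 min at room temperature in Na+-free buffer with 0–30 μM compound. Initial rate of BCECF fluorescence ratio change (FLIPR) per minute taken as Na+/H+ activity.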
smiles,measurement,setting,value
"Cc1cc(S(=O)(=O)NCCCCCCCCNC(=O)NCCCCNC(=O)NCCCCCCCCNS(=O)(=O)c2ccc(O[C@H]3c4cc(Cl)cc(Cl)c4C[C@@H]3N(C)C)c(C)c2)ccc1O[C@H]1c2cc(Cl)cc(Cl)c2C[C@@H]1N(C)C [Example 65, 3-[8-[(4-[[(1S,2S)-4,6-Dichloro-2-(dimethylamino)-2,3-dihydro-1H-inden-1-yl]oxy]-3-methylbenzene)sulfonamido]octyl]-1-[4-[([8-[(4-[[(1S,2S)-4,6-dichloro-2-(dimethylamino)-2,3-dihydro-1H-inden-1-yl]oxy]-3-methylbenzene)sulfonamido]octyl]carbamoyl)amino]butyl]urea]",% inhibition,NHE3 [1],A (NHE3 < 40%)
same,% inhibition,NHE3 [2],A (NHE3 < 40%)
"C[C@@H]1CCCCN1[C@H]1Cc2c(Cl)cc(Cl)cc2[C@@H]1Oc1ccc(S(=O)(=O)NCCOCCOCCNC(=O)NCCCCNC(=O)NCCOCCOCCNS(=O)(=O)c2ccc(O[C@H]3c4cc(Cl)cc(Cl)c4C[C@@H]3N3CCCC[C@H]3C)cc2)cc1 [Example 66, 3-[2-(2-[2-[(4-[[(1S,2S)-4,6-Dichloro-2-[(2R)-2-methylpiperidin-1-yl]-2,3-dihydro-1H-inden-1-yl]oxy]benzene)sulfonamido]ethoxy]ethoxy)ethyl]-1-[4-([[2-(2-[2-[(4-[[(1S,2S)-4,6-dichloro-2-[(2R)-2-methylpiperidin-1-yl]-2,3-dihydro-1H-inden-1-yl]oxy]benzene)sulfonamido]ethoxy]ethoxy)ethyl]carbamoyl]amino)butyl]urea]",% inhibition,NHE3 [1],A (NHE3 < 40%)
same,pIC50,NHE3 [1],A (NHE3 pIC50 < 6)
same,% inhibition,NHE3 [2],A (NHE3 < 40%)
same,pIC50,NHE3 [2],A (NHE3 pIC50 < 6)
"C[C@H]1CCCCN1[C@H]1Cc2c(Cl)cc(Cl)cc2[C@@H]1Oc1ccc(S(=O)(=O)NCCOCCOCCNC(=O)NCCCCNC(=O)NCCOCCOCCNS(=O)(=O)c2ccc(O[C@H]3c4cc(Cl)cc(Cl)c4C[C@@H]3N3CCCC[C@@H]3C)cc2)cc1 [Example 67, 3-[2-(2-[2-[(4-[[(1S,2S)-4,6-Dichloro-2-[(2S)-2-methylpiperidin-1-yl]-2,3-dihydro-1H-inden-1-yl]oxy]benzene)sulfonamido]ethoxy]ethoxy)ethyl]-1-[4-([[2-(2-[2-[(4-[[(1S,2S)-4,6-dichloro-2-[(2S)-2-methylpiperidin-1-yl]-2,3-dihydro-1H-inden-1-yl]oxy]benzene)sulfonamide]ethoxy]ethoxy)ethyl]carbamoyl]amino)butyl]urea]",% inhibition,NHE3 [1],B (40-70%)
same,IC50,NHE3 [1],100 to 1000 nM
same,% inhibition,NHE3 [2],C (>70%)
same,IC50,NHE3 [2],100 to 1000 nM
O=C(NCCCCNC(=O)NCCOCCOCCNS(=O)(=O)c1ccc(O[C@H]2c3cc(Cl)cc(Cl)c3C[C@@H]2N2CC3CCC2C3)cc1)NCCOCCOCCNS(=O)(=O)c1ccc(O[C@H]2c3cc(Cl)cc(Cl)c3C[C@@H]2N2CC3CCC2C3)cc1 [Example 68],% inhibition,NHE3 [1],C (>70%)
same,pIC50,NHE3 [1],C (NHE3 pIC50 > 7)
same,% inhibition,NHE3 [2],C (>70%)
same,pIC50,NHE3 [2],C (NHE3 pIC50 > 7)
"O=C(NCCCCNC(=O)NCCOCCOCCNS(=O)(=O)c1ccc(O[C@H]2c3cc(Cl)cc(Cl)c3C[C@@H]2N2CC3CCC2CC3)cc1)NCCOCCOCCNS(=O)(=O)c1ccc(O[C@H]2c3cc(Cl)cc(Cl)c3C[C@@H]2N2CC3CCC2CC3)cc1 [Example 69, 1-[2-(2-[2-[(4-[[(1S,2S)-2-[2-Azabicyclo[2.2.2]octan-2-yl]-4,6-dichloro-2,3-dihydro-1H-inden-1-yl]oxy]benzene)sulfonamido]ethoxy]ethoxy)ethyl]-3-[4-([[2-(2-[2-[(4-[[(1S,2S)-2-[2-azabicyclo[2.2.2]octan-2-yl]-4,6-dichloro-2,3-dihydro-1H-inden-1-yl]oxy]benzene)sulfonamido]ethoxy]ethoxy)ethyl]carbamoyl]amino)butyl]urea]",% inhibition,NHE3 [1],C (>70%)
same,IC50,NHE3 [1],100 to 1000 nM
same,% inhibition,NHE3 [2],C (>70%)
same,pIC50,NHE3 [2],C (NHE3 pIC50 > 7)
"O=C(NCCCCNC(=O)NCCOCCOCCNS(=O)(=O)c1ccc(O[C@H]2c3cc(Cl)cc(Cl)c3C[C@@H]2N2C3CCCC2CC3)cc1)NCCOCCOCCNS(=O)(=O)c1ccc(O[C@H]2c3cc(Cl)cc(Cl)c3C[C@@H]2N2C3CCCC2CC3)cc1 [Example 70, 3-[2-(2-[2-[(4-[[(1S,2S)-2-[8-azabicyclo[3.2.1]octan-8-yl]-4,6-dichloro-2,3-dihydro-1H-inden-1-yl]oxy]benzene)sulfonamido]ethoxy]ethoxy)ethyl]-1-[4-([[2-(2-[2-[(4-[[(1S,2S)-2-[8-azabicyclo[3.2.1]octan-8-yl]-4,6-dichloro-2,3-dihydro-1H-inden-1-yl]oxy]benzene)sulfonamido]ethoxy]ethoxy)ethyl]carbamoyl]amino)butyl]urea]",% inhibition,NHE3 [1],C (>70%)
same,% inhibition,NHE3 [2],C (>70%)
"O=C(NCCCCNC(=O)NCCOCCOCCNS(=O)(=O)c1ccc(O[C@H]2c3cc(Cl)cc(Cl)c3C[C@@H]2N2C3CCCC2CCC3)cc1)NCCOCCOCCNS(=O)(=O)c1ccc(O[C@H]2c3cc(Cl)cc(Cl)c3C[C@@H]2N2C3CCCC2CCC3)cc1 [Example 71, 1-[2-(2-[2-[(4-[[(1S,2S)-2-[9-Azabicyclo[3.3.1]nonan-9-yl]-4,6-dichloro-2,3-dihydro-1H-inden-1-yl]oxy]benzene)sulfonamido]ethoxy]ethoxy)ethyl]-3-[4-([[2-(2-[2-[(4-[[(1S,2S)-2-[9-azabicyclo[3.3.1]nonan-9-yl]-4,6-dichloro-2,3-dihydro-1H-inden-1-yl]oxy]benzene)sulfonamido]ethoxy]ethoxy)ethyl]carbamoyl]amino)butyl]urea]",% inhibition,NHE3 [1],B (40-70%)
same,pIC50,NHE3 [1],A (NHE3 pIC50 < 6)
same,% inhibition,NHE3 [2],B (40-70%)
same,pIC50,NHE3 [2],A (NHE3 pIC50 < 6)
"CN1CCN([C@H]2Cc3c(Cl)cc(Cl)cc3[C@@H]2Oc2ccc(S(=O)(=O)NCCOCCOCCNC(=O)NCCCCNC(=O)NCCOCCOCCNS(=O)(=O)c3ccc(O[C@H]4c5cc(Cl)cc(Cl)c5C[C@@H]4N4CCN(C)CC4)cc3)cc2)CC1 [Example 72, 3-[2-(2-[2-[(4-[[(1S,2S)-4,6-Dichloro-2-(4-methylpiperazin-1-yl)-2,3-dihydro-1H-inden-1-yl]oxy]benzene)sulfonamido]ethoxy]ethoxy)ethyl]-1-[4-([[2-(2-[2-[(4-[[(1S,2S)-4,6-dichloro-2-(4-methylpiperazin-1-yl)-2,3-dihydro-1H-inden-1-yl]oxy]benzene)sulfonamido]ethoxy]ethoxy)ethyl]carbamoyl]amino)butyl]urea a; bis(trifluoroacetic acid)]",% inhibition,NHE3 [1],C (>70%)
same,IC50,NHE3 [1],100 to 1000 nM
same,% inhibition,NHE3 [2],C (>70%)
Cc1cc(S(=O)(=O)NCCOCCOCCNC(=O)NCCCCNC(=O)NCCOCCOCCNS(=O)(=O)c2ccc(O[C@H]3c4cc(Cl)cc(Cl)c4C[C@@H]3N3CCN(C)CC3)c(C)c2)ccc1O[C@H]1c2cc(Cl)cc(Cl)c2C[C@@H]1N1CCN(C)CC1 [Example 73],% inhibition,NHE3 [1],B (40-70%)
same,pIC50,NHE3 [1],A (NHE3 pIC50 < 6)
same,% inhibition,NHE3 [2],C (>70%)
same,IC50,NHE3 [2],100 to 1000 nM
"CC(=O)N1CCN([C@H]2Cc3c(Cl)cc(Cl)cc3[C@@H]2Oc2ccc(S(=O)(=O)NCCOCCOCCNC(=O)NCCCCNC(=O)NCCOCCOCCNS(=O)(=O)c3ccc(O[C@H]4c5cc(Cl)cc(Cl)c5C[C@@H]4N4CCN(C(C)=O)CC4)cc3)cc2)CC1 [Example 74, 3-[2-(2-[2-[(4-[[(1S,2S)-2-(4-Acetylpiperazin-1-yl)-4,6-dichloro-2,3-dihydro-1H-inden-1-yl]oxy]benzene)sulfonamido]ethoxy]ethoxy)ethyl]-1-[4-([[2-(2-[2-[(4-[[(1S,2S)-2-(4-acetylpiperazin-1-yl)-4,6-dichloro-2,3-dihydro-1H-inden-1-yl]oxy]benzene)sulfonamido]ethoxy]ethoxy)ethyl]carbamoyl]amino)butyl]urea]",% inhibition,NHE3 [1],A (NHE3 < 40%)
same,pIC50,NHE3 [1],A (NHE3 pIC50 < 6)
same,% inhibition,NHE3 [2],C (>70%)
same,pIC50,NHE3 [2],A (NHE3 pIC50 < 6)
